Measurements: US12590091B2, “1H-pyrrolo[3,2-C]pyridine and 1H-pyrrolo[2,3-C]pyridine derivatives as TLR9 inhibitors for the treatment of fibrosis” (BRISTOL-MYERS SQUIBB COMPANY, priority 2020, dated 2026)

Biological target: T1, human TLR9 (Homo sapiens, UniProt Q9NR96)
T1 construct: host or cells: HEK-Blue cells
T1 sequence (Q9NR96 26-1032): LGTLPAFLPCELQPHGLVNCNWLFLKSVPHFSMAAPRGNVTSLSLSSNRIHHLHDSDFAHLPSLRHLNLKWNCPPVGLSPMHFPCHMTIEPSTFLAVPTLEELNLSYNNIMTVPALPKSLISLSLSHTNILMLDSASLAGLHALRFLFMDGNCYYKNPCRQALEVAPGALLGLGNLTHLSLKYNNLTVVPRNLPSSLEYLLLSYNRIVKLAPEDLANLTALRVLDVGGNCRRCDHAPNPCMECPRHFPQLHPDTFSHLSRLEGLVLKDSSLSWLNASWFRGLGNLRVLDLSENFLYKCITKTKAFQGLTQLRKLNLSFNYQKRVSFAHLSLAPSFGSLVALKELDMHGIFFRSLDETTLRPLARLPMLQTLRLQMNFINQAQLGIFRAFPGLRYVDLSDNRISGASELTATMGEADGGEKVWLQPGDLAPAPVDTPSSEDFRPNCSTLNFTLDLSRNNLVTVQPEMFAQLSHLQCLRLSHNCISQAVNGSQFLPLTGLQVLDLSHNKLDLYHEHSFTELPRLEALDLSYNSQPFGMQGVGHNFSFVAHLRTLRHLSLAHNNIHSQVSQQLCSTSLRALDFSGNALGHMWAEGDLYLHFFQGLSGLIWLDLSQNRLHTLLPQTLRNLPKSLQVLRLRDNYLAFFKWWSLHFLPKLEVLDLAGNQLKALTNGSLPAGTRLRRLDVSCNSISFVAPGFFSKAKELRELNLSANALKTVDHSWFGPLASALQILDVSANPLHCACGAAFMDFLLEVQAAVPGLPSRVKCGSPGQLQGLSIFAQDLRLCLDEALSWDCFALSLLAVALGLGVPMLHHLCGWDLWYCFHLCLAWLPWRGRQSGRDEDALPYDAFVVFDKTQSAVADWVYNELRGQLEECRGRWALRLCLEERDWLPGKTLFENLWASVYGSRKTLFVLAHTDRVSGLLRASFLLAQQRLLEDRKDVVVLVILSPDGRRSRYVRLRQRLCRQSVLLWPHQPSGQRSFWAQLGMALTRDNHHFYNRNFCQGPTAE
Test: TLR9 inhibition reporter assay (HEK-Blue cells, SEAP reporter)
Assay type: cell-based
Settings: HEK-Blue cells overexpressing human TLR9, stimulated with ODN2006 5 nM, 22 hour incubation
Protocol: TLR7/8/9 Inhibition Reporter Assays
HEK-Blue™-cells (Invivogen) overexpressing human TLR7, TLR8 or TLR9 receptors were used for screening inhibitors of these receptors using an inducible SEAP (secreted embryonic alkaline phosphatase) reporter gene under the control of the IFN-β minimal promoter fused to five NF-κB and AP-1-binding sites. Briefly, cells are seeded into Greiner 384 well plates (15000 cells per well for TLR7, 20,000 for TLR8 and 25,000 for TLR9) and then treated with test compounds in DMSO to yield a final dose response concentration range of 0.05 nM-50 μM. […] After a 22 hour incubation at 37° C., 5% CO2, SEAP levels are determined with the addition of HEK-Blue™ Detection reagent (Invivogen), a cell culture medium that allows for detection of SEAP, according to manufacturer's specifications. The percent inhibition is determined as the % reduction in the HEK-Blue signal present in wells treated with agonist plus DMSO alone compared to wells treated with a known inhibitor.

SMILES	IC50 [nM]
Cc1nc(-c2ccc(N3CCN(C(C)C)CC3)c(F)c2)cc2c1cc(-c1ccc(S(C)(=O)=O)cc1)n2C [Example 12, 6-(3-Fluoro-4-(4-isopropylpiperazin-1-yl)phenyl)-1,4-dimethyl-2-(4-(methylsulfonyl)phenyl)-1H-pyrrolo[3,2-c]pyridine]	36
COc1ccc(-c2cc3cnc(-c4ccc(N5CCN(C(C)=O)CC5)cc4)cc3n2C)cc1OC [Example 30, 1-(4-(4-(2-(3,4-dimethoxyphenyl)-1-methyl-1H-pyrrolo[3,2-c]pyridin-6-yl)phenyl)piperazin-1-yl) ethan-1-one]	579
Cc1nc(-c2ccc(N3CCN(C(C)C)CC3)cc2)cc2c1cc(-c1cccc(S(C)(=O)=O)c1)n2C [Example 39, 6-(4-(4-isopropylpiperazin-1-yl)phenyl)-1,4-dimethyl-2-(3-(methylsulfonyl)phenyl)-1H-pyrrolo[3,2-c]pyridine]	672
Cc1nc(-c2ccc(N3CCN(CC(C)C)CC3)cc2)cc2c1cc(-c1cccc(S(C)(=O)=O)c1)n2C [Example 40, 6-(4-(4-isobutylpiperazin-1-yl)phenyl)-1,4-dimethyl-2-(3-(methylsulfonyl)phenyl)-1H-pyrrolo[3,2-c]pyridine]	98
Cc1nc(-c2ccc(N3CCN(C(C)C)CC3)cc2)cc2c1cc(-c1ccc(S(=O)(=O)C3CC3)cc1)n2C [Example 42, 2-(4-(Cyclopropylsulfonyl)phenyl)-6-(4-(4-isopropylpiperazin-1-yl)phenyl)-1,4-dimethyl-1H-pyrrolo[3,2-c]pyridine]	346
Cc1nc(-c2ccc(N3CCN(CC(C)C)CC3)cc2)cc2c1cc(-c1ccc(S(=O)(=O)C3CC3)cc1)n2C [Example 46, 2-(4-(cyclopropylsulfonyl)phenyl)-6-(4-(4-isobutylpiperazin-1-yl)phenyl)-1,4-dimethyl-1H-pyrrolo[3,2-c]pyridine]	213
Cc1nc(-c2ccc(N3CCN(C(C)C)CC3)cc2)cc2c1cc(-c1ccc(S(=O)(=O)N(C)C)cc1)n2C [Example 49, 4-(6-(4-(4-isopropylpiperazin-1-yl)phenyl)-1,4-dimethyl-1H-pyrrolo[3,2-c]pyridin-2-yl)-N,N-dimethylbenzenesulfonamide]	6760
Cc1nc(-c2ccc(N3CCN(C4COC4)CC3)cc2)cc2c1cc(-c1ccc(S(=O)(=O)N(C)C)cc1)n2C [Example 50, 4-(1,4-dimethyl-6-(4-(4-(oxetan-3-yl)piperazin-1-yl)phenyl)-1H-pyrrolo[3,2-c]pyridin-2-yl)-N,N-dimethylbenzenesulfonamide]	2410
COCCN1CCN(c2ccc(-c3cc4c(cc(-c5ccc(S(=O)(=O)N(C)C)cc5)n4C)c(C)n3)cc2)CC1 [Example 51, 4-(6-(4-(4-(2-methoxyethyl)piperazin-1-yl)phenyl)-1,4-dimethyl-1H-pyrrolo[3,2-c]pyridin-2-yl)-N,N-dimethylbenzenesulfonamide]	44
Cc1nc(-c2ccc(N3CCN(C4CCOC4)CC3)cc2)cc2c1cc(-c1ccc(S(=O)(=O)N(C)C)cc1)n2C (stereo not drawn) [Example 52, 4-(1,4-dimethyl-6-(4-(4-(tetrahydrofuran-3-yl)piperazin-1-yl)phenyl)-1H-pyrrolo[3,2-c]pyridin-2-yl)-N,N-dimethylbenzenesulfonamide]	202
Cc1nc(-c2ccc(N3CCN(C4CC4)CC3)cc2)cc2c1cc(-c1ccc(S(C)(=O)=O)cc1)n2C [Example 62, 6-(4-(4-cyclopropylpiperazin-1-yl)phenyl)-1,4-dimethyl-2-(4-(methylsulfonyl)phenyl)-1H-pyrrolo[3,2-c]pyridine]	105
Cc1nc(-c2ccc(N3CCN4CCCC4C3)cc2)cc2c1cc(-c1ccc(S(C)(=O)=O)cc1)n2C (stereo not drawn) [Example 63, 6-(4-(hexahydropyrrolo[1,2-a]pyrazin-2(1H)-yl)phenyl)-1,4-dimethyl-2-(4-(methylsulfonyl)phenyl)-1H-pyrrolo[3,2-c]pyridine]	146
Cc1nc(-c2ccc(N3CC4CCC(C3)N4C(C)C)cc2)cc2c1cc(-c1ccc(S(C)(=O)=O)cc1)n2C [Example 64, 6-(4-(8-isopropyl-3,8-diazabicyclo[3.2.1]octan-3-yl)phenyl)-1,4-dimethyl-2-(4-(methylsulfonyl)phenyl)-1H-pyrrolo[3,2-c]pyridine]	6.4
Cc1nc(-c2ccc(N3CCN4CCCC4C3)c(F)c2)cc2c1cc(-c1ccc(S(C)(=O)=O)cc1)n2C (stereo not drawn) [Example 65, 6-(3-fluoro-4-(hexahydropyrrolo[1,2-a]pyrazin-2(1H)-yl)phenyl)-1,4-dimethyl-2-(4-(methylsulfonyl)phenyl)-1H-pyrrolo[3,2-c]pyridine]	136
COCCN1CCN(c2ccc(-c3cc4c(cc(-c5ccc(S(C)(=O)=O)cc5)n4C)c(C)n3)cc2F)CC1 [Example 66, 6-(3-fluoro-4-(4-(2-methoxyethyl)piperazin-1-yl)phenyl)-1,4-dimethyl-2-(4-(methylsulfonyl)phenyl)-1H-pyrrolo[3,2-c]pyridine]	136

Continued, values first:

IC50 [nM]	SMILES
25	Cc1nc(-c2cccc(N3CCN(C(C)C)CC3)c2)cc2c1cc(-c1ccc(S(C)(=O)=O)cc1)n2C [Example 67, 6-(3-(4-isopropylpiperazin-1-yl)phenyl)-1,4-dimethyl-2-(4-(methylsulfonyl)phenyl)-1H-pyrrolo[3,2-c]pyridine]
299	Cc1nc(-c2cccc(N3CCN(C4CC4)CC3)c2)cc2c1cc(-c1ccc(S(C)(=O)=O)cc1)n2C [Example 68, 6-(3-(4-cyclopropylpiperazin-1-yl)phenyl)-1,4-dimethyl-2-(4-(methylsulfonyl)phenyl)-1H-pyrrolo[3,2-c]pyridine]
3	Cc1nc(-c2ccc(N3CCN(C4CCOCC4)CC3)c(F)c2)cc2c1cc(-c1ccc(S(C)(=O)=O)cc1)n2C [Example 71, 6-(3-fluoro-4-(4-(tetrahydro-2H-pyran-4-yl)piperazin-1-yl)phenyl)-1,4-dimethyl-2-(4-(methylsulfonyl)phenyl)-1H-pyrrolo[3,2-c]pyridine]
411	Cc1nc(-c2ccc(N3CCN(CC(C)C)CC3)c(F)c2)cc2c1cc(-c1ccc(S(C)(=O)=O)cc1)n2C [Example 72, 6-(3-fluoro-4-(4-isobutylpiperazin-1-yl)phenyl)-1,4-dimethyl-2-(4-(methylsulfonyl)phenyl)-1H-pyrrolo[3,2-c]pyridine]
359	Cc1nc(-c2ccc(N3CC4CCC(C3)N4CC(C)C)cc2)cc2c1cc(-c1ccc(S(C)(=O)=O)cc1)n2C [Example 73, 6-(4-(8-isobutyl-3,8-diazabicyclo[3.2.1]octan-3-yl)phenyl)-1,4-dimethyl-2-(4-(methylsulfonyl)phenyl)-1H-pyrrolo[3,2-c]pyridine]
670	Cc1nc(-c2cc(F)c(N3CCN(C4CCOCC4)CC3)cc2F)cc2c1cc(-c1ccc(S(C)(=O)=O)cc1)n2C [Example 81, 6-(2,5-difluoro-4-(4-(tetrahydro-2H-pyran-4-yl)piperazin-1-yl)phenyl)-1,4-dimethyl-2-(4-(methylsulfonyl)phenyl)-1H-pyrrolo[3,2-c]pyridine]
2300	Cc1nc(-c2ccc(N3CCN(C4CCOCC4)CC3)c(F)c2F)cc2c1cc(-c1ccc(S(C)(=O)=O)cc1)n2C [Example 83, 6-(2,3-difluoro-4-(4-(tetrahydro-2H-pyran-4-yl)piperazin-1-yl)phenyl)-1,4-dimethyl-2-(4-(methylsulfonyl)phenyl)-1H-pyrrolo[3,2-c]pyridine]
626	Cc1nc(-c2cc(F)c(N3CCN(CC(C)C)CC3)c(F)c2)cc2c1cc(-c1ccc(S(C)(=O)=O)cc1)n2C [Example 84, 6-(3,5-difluoro-4-(4-isobutylpiperazin-1-yl)phenyl)-1,4-dimethyl-2-(4-(methylsulfonyl)phenyl)-1H-pyrrolo[3,2-c]pyridine]
2400	Cc1nc(-c2ccc(N3CCS(=O)(=O)CC3)cc2)cc2c1cc(-c1ccc(S(C)(=O)=O)cc1)n2C [Example 85, 4-(4-(1,4-dimethyl-2-(4-(methylsulfonyl)phenyl)-1H-pyrrolo[3,2-c]pyridin-6-yl)phenyl)thiomorpholine 1,1-dioxide]
